From patent US10112933B2, “Methods and compositions for treatment of fibrosis” (Baylor College of Medicine, priority 2013, dated 2018) come the findings set out here.

This assay relates to MEF/GFP-Stat3α cells. In words: HTFM cytoplasmic-to-nuclear translocation of GFP-Stat3α. The settings on record: for IC50: Mus musculus, 0.5 h, MEF/GFP-Stat3α, IL-6 200 ng/ml and IL-6sR 250 ng/ml 30 min, read-out: HTM IC50 (ligand-mediated nuclear translocation of GFP-Stat3α). The class given is cell-based, murine. Here is the method:
Coverslips were examined by confocal fluorescent microscopy using filters to detect GFP (column one), DAPI (column two) or both (merge; column three). In panel B, MEF-GFP-Stat3 cells were grown in 96-well plates with optical glass bottoms and pretreated with the indicated compound at the indicated concentrations in quadruplicate for 1 hour then stimulated with IL-6 (200 ng/ml) and IL-6sR (250 ng/ml) for 30 minutes. Cells were fixed and the plates were examined by high-throughput microscopy to determine the fluorescence intensity in the nucleus (FLIN) and the % ΔFLINMax was calculated as described in Example 1. Data shown are mean±SD and are representative of 2 or more studies. Best-fit curves were generated based on 4 Parameter Logistic Model/Dose Response One Site/XLfit 4.2, IDBS and were used to calculate IC50 (Table 1).
Confocal and high-throughput fluorescence microscopy. Confocal and highthroughput fluorescence microscopy (HTFM) of MEF/GFP-Stat3α cells were performed as described (Huang et al., 2007). Briefly, for confocal fluorescence microscopy, cells were grown in 6-well plates containing a cover slip. For HTFM, cells were seeded into 96-well CC3 plates at a density of 5,000 cells/well using an automated plating system. Cells were cultured under standard conditions until 85-90% confluent. Cells were pretreated with compound for 1 hour at 37° C. then stimulated with IL-6 (200 ng/ml) and IL-6sR (250 ng/ml) for 30 minutes. Cells were fixed with 4% formaldehyde in PEM Buffer (80 mM Potassium PIPES, pH 6.8, 5 mM EGTA pH 7.0, 2 mM MgCl2) for 30 minutes at 4° C., quenched in 1 mg/ml of NaBH4 (Sigma) in PEM buffer and counterstained for 1 min in 4,6-diamidino-2-phenylindole (DAPI; Sigma; 1 mg/ml) in PEM buffer. Cover slips were examined by confocal fluorescent microscopy. Plates were analyzed by automated HTFM using the Cell Lab IC Image Cytometer (IC100) platform and CytoshopVersion 2.1 analysis software (Beckman Coulter). Nuclear translocation is quantified by using the fraction localized in the nucleus (FLIN) measurement (Sharp et al., 2006).
Following its phosphorylation on Y705, Stat3 undergoes a change in conformation from head-to-head dimerization mediated through its N-terminal oligomerization domain to tail-to-tail dimerization mediated by reciprocal SH2/pY705-peptide ligand interactions. This conformational change is followed by nuclear accumulation. Compounds that targeted SH2/pY-peptide ligand interactions of Stat3 would be expected to inhibit nuclear accumulation of Stat3. […]
EXP IIB. High throughput fluorescence microscopy (HTFM), cytoplasm-to-nucleus translocation inhibition assays. […] Plates are analyzed by automated HTFM using the Cell Lab IC Image Cytometer (IC100) platform and CytoshopVersion 2.1 analysis software (Beckman Coulter). […]

As usually defined, the IC50 is the midpoint of a concentration-inhibition curve. For `O=C(O)c1ccc(C=CC(=O)c2ccc3c(c2)OCCO3)cc1` [Cpd3, 4-[3-(2,3-dihydro-1,4-benzodioxin-6-yl)-3-oxo-1-propen-1-yl]benzoic acid], the IC50 is 131 µM.
As for `CCOc1cc(C=C2C(=O)c3ccccc3C2=O)cc(Cl)c1OCc1cccc(C(=O)O)c1` [Cpd3-2, 3-({2-chloro-4-[(1,3-dioxo-1,3-dihydro-2H-inden-2-ylidene)methyl]-6-ethoxyphenoxy}methyl)benzoic acid], the IC50 stood at 150 µM.
On to `CCN1C(=O)C(=Cc2ccc(-c3cc(C(=O)O)ccc3Cl)o2)C(=O)N(CC)C1=S` [Cpd30-12, 4-chloro-3-{5-[(1,3-diethyl-4,6-dioxo-2-thioxotetrahydro-5(2H)-pyrimidinylidene)methyl]-2-furyl}benzoic acid], for which the concentration for half-maximal inhibition (IC50) is more than 300 µM. For the same compound, the “blocked ligand-mediated nuclear translocation of GFP-Stat3” value (MEF/GFP-Stat3α cells) is on record as “not”.
